Test results reported in US20260083130A1, “NOVEL SULFONATE BENZAMIDE COMPOUNDS FOR CONTROLLING INVERTEBRATE PESTS” (FMC CORPORATION, priority 2022, published 2026).
Where two headings read alike, the source gives them in different places.

Assays:
Type in all cases: in vivo
[1] = tested on: cotton melon aphid (Aphis gossypii (Glover)); experiment: Test E: control of cotton melon aphid, spray on okra plant; details: 144 h; for mortality at 2 ppm: sprayed at 2 ppm; for mortality at 10 ppm: sprayed at 10 ppm
Procedure: (§1) Test compounds were formulated using a solution containing 10% acetone, 90% water and 300 ppm Activator 90® non-ionic surfactant (Loveland Products, Loveland, Colorado, USA). The formulated compounds were applied in 1 mL of liquid through an atomized nozzle positioned 1.27 cm (0.5 inches) above the top of each test unit. Test compounds were sprayed at the rates indicated, and each test was replicated three times.
For evaluating control of cotton melon aphid (Aphis gossypii (Glover)) through contact and/or systemic means, the test unit consisted of a small open container with a 5-day-old okra plant inside. This was pre-infested with 30-40 insects on a piece of leaf according to the cut-leaf method, and the soil of the test unit was covered with a layer of sand.
Test compounds were formulated and sprayed at 250, 50, 10, and 2 ppm with three replications as described above. After spraying, the test units were maintained in a growth chamber for 6 days at 19° C. and 70% relative humidity. Each test unit was then visually assessed for insect mortality.

[2] = tested on: Corn Planthopper (Peregrinus maidis (Ashmead)); experiment: Test C: control of Corn Planthopper, spray on corn plant; details: 144 h, nymphs, assessed after 6 days; for mortality at 250 ppm: sprayed at 250 ppm; for mortality at 50 ppm: sprayed at 50 ppm
Procedure: as §1
For evaluating control of Corn Planthopper (Peregrinus maidis (Ashmead)) through contact and/or systemic means, the test unit consisted of a small open container with a 3- to 4-day-old corn (maize) plant inside. White sand was added to the top of the soil prior to application of the test compound.
Test compounds were formulated and sprayed at 250 and 50 ppm with three replications as described above. After spraying of the formulated test compound, the test units were allowed to dry for 1 h before they were post-infested with ˜15-20 nymphs (18-to-21-day-old). A black, screened cap was placed on the top of each test unit, and the test units were held for 6 days in a growth chamber at 22 to 24° C. and 50-70% relative humidity. Each test unit was then visually assessed for insect mortality.

[3] = tested on: Green Peach Aphid (Myzus persicae (Sulzer)); experiment: Test D: control of Green Peach Aphid, spray on radish plant; details: 144 h, assessed after 6 days; for mortality at 250 ppm: sprayed at 250 ppm
Procedure: as §1
For evaluating control of Green Peach Aphid (Myzus persicae (Sulzer)) through contact and/or systemic means, the test unit consisted of a small open container with a 12- to 15-day-old radish plant inside. Prior to compound application, each test unit was pre-infested by placing on a leaf of the test plant 30-40 aphids on a piece of leaf excised from a culture plant (cut-leaf method). The aphids moved onto the test plant as the leaf piece desiccated. After pre-infestation, the soil of the test unit was covered with a layer of sand.
Test compounds were formulated and sprayed at 250 and 50 ppm with three replications as described above. After spraying of the formulated test compound, each test unit was allowed to dry for 1 hour and then a black, screened cap was placed on top. The test units were held for 6 days in a growth chamber at 19-21° C. and 50-70% relative humidity. Each test unit was then visually assessed for insect mortality.

[4] = sprayed at 50 ppm, assessed after 6 days, read-out: mortality
[5] = sprayed at 250 ppm, assessed after 6 days, read-out: mortality

CC(NC(=O)c1cc(OS(=O)(=O)C(F)(F)F)cc(C(F)(F)F)c1)c1ncnn1-c1ncccn1 (stereo not shown) [Compound 2, 3-[[[1-[1-(2-Pyrimidinyl)-1H-1,2,4-triazol-5-yl]ethyl]amino]carbonyl]-5-(trifluoromethyl)phenyl 1,1,1-trifluoromethanesulfonate]
≥ 80%: mortality at 2 ppm ([1]; assessed after 6 days) | mortality at 10 ppm ([1]; assessed after 6 days) | mortality at 50 ppm [1, 4] | mortality at 250 ppm [1, 5]

CC(NC(=O)c1cccc(OS(=O)(=O)C(F)(F)F)c1)c1ncnn1-c1ncccn1 (stereo not shown) [Compound 3, 3-[[[1-[1-(2-Pyrimidinyl)-1H-1,2,4-triazol-5-yl]ethyl]amino]carbonyl]phenyl 1,1,1-trifluoromethanesulfonate]
≥ 80%: mortality at 250 ppm [2] | mortality at 50 ppm [1, 4] | mortality at 250 ppm [1, 5]

CC(NC(=O)c1cc(Cl)cc(OS(=O)(=O)C(F)(F)F)c1)c1ncnn1-c1ncccn1 (stereo not shown) [Compound 4, 3-Chloro-5-[[[1-[1-(2-pyrimidinyl)-1H-1,2,4-triazol-5-yl]ethyl]amino]carbonyl]phenyl 1,1,1-trifluoromethanesulfonate]
≥ 80%: mortality at 250 ppm [2] | mortality at 50 ppm ([3]; sprayed at 50 ppm) | mortality at 250 ppm [3] | mortality at 2 ppm ([1]; assessed after 6 days) | mortality at 10 ppm ([1]; assessed after 6 days) | mortality at 50 ppm [1, 4] | mortality at 250 ppm [1, 5]

CC(NC(=O)c1cccc(OS(=O)(=O)c2ccccc2)c1)c1ncnn1-c1ncccn1 (stereo not shown) [Compound 6, 3-[(Phenylsulfonyl)oxy]-N-[1-[1-(2-pyrimidinyl)-1H-1,2,4-triazol-5-yl]ethyl]benzamide]
≥ 80%: mortality at 250 ppm [1, 5]

CC(NC(=O)c1cccc(OS(=O)(=O)C(F)F)c1)c1ncnn1-c1ncccn1 (stereo not shown) [Compound 7, 3-[[[1-[1-(2-Pyrimidinyl)-1H-1,2,4-triazol-5-yl]ethyl]amino]carbonyl]phenyl 1,1-difluoromethanesulfonate]
≥ 80%: mortality at 50 ppm [1, 4] | mortality at 250 ppm [1, 5]

C[C@@H](NC(=O)c1cc(Cl)cc(OS(=O)(=O)C(F)(F)F)c1)c1ncnn1-c1ncccn1 [Compound 9, 3-Chloro-5-[[[1-[1-(2-pyrimidinyl)-1H-1,2,4-triazol-5-yl]ethyl]amino]carbonyl]phenyl 1,1,1-trifluoromethanesulfonate; (+) enantiomer]
≥ 80%: mortality at 50 ppm [2] | mortality at 250 ppm [2] | mortality at 250 ppm [3] | mortality at 50 ppm [1, 4] | mortality at 250 ppm [1, 5]

CC(c1ncnn1-c1ncccn1)N(CC1CC1)C(=O)c1cc(Cl)cc(OS(=O)(=O)C(F)(F)F)c1 (stereo not shown) [Compound 10, 3-Chloro-5-[[(cyclopropylmethyl)[1-[1-(2-pyrimidinyl)-1H-1,2,4-triazol-5-yl]ethyl]amino]carbonyl]phenyl 1,1,1-trifluoromethanesulfonate]
≥ 80%: mortality at 50 ppm [2] | mortality at 250 ppm [2] | mortality at 2 ppm ([1]; assessed after 6 days) | mortality at 10 ppm ([1]; assessed after 6 days) | mortality at 50 ppm [1, 4] | mortality at 250 ppm [1, 5]

CC(c1ncnn1-c1ncccn1)N(CC1CC1)C(=O)c1cc(OS(=O)(=O)C(F)(F)F)cc(C(F)(F)F)c1 (stereo not shown) [Compound 11, 3-[[(Cyclopropylmethyl)[1-[1-(2-pyrimidinyl)-1H-1,2,4-triazol-5-yl]ethyl]amino]carbonyl]-5-(trifluoromethyl)phenyl 1,1,1-trifluoromethanesulfonate]
≥ 80%: mortality at 50 ppm [2] | mortality at 250 ppm [2] | mortality at 250 ppm [3] | mortality at 2 ppm ([1]; assessed after 6 days) | mortality at 10 ppm ([1]; assessed after 6 days) | mortality at 50 ppm [1, 4] | mortality at 250 ppm [1, 5]

C[C@H](NC(=O)c1cc(OS(=O)(=O)C(F)(F)F)cc(C(F)(F)F)c1)c1ncnn1-c1ncccn1 [Compound 12, 3-[[[(1S)-[1-(2-Pyrimidinyl)-1H-1,2,4-triazol-5-yl]ethyl]amino]carbonyl]-5-(trifluoromethyl)phenyl 1,1,1-trifluoromethanesulfonate; (−) enantiomer]
≥ 80%: mortality at 250 ppm [1, 5]

C[C@@H](NC(=O)c1cc(OS(=O)(=O)C(F)(F)F)cc(C(F)(F)F)c1)c1ncnn1-c1ncccn1 [Compound 13, (R)3-[[[1-[1-(2-Pyrimidinyl)-1H-1,2,4-triazol-5-yl]ethyl]amino]carbonyl]-5-(trifluoromethyl)phenyl 1,1,1-trifluoromethanesulfonate; (+) enantiomer]
≥ 80%: mortality at 50 ppm [2] | mortality at 250 ppm [2] | mortality at 250 ppm [3] | mortality at 2 ppm ([1]; assessed after 6 days) | mortality at 10 ppm ([1]; assessed after 6 days) | mortality at 50 ppm [1, 4] | mortality at 250 ppm [1, 5]

CC(NC(=O)c1cc(F)cc(OS(=O)(=O)C(F)(F)F)c1)c1ncnn1-c1ncccn1 (stereo not shown) [Compound 14, 3-Fluoro-5-[[[1-[1-(2-pyrimidinyl)-1H-1,2,4-triazol-5-yl]ethyl]amino]carbonyl]phenyl 1,1,1-trifluoromethanesulfonate]
≥ 80%: mortality at 50 ppm [1, 4] | mortality at 250 ppm [1, 5]

CC(NC(=O)c1cc(Br)cc(OS(=O)(=O)C(F)(F)F)c1)c1ncnn1-c1ncccn1 (stereo not shown) [Compound 15, 3-Bromo-5-[[[1-[1-(2-pyrimidinyl)-1H-1,2,4-triazol-5-yl]ethyl]amino]carbonyl]phenyl 1,1,1-trifluoromethanesulfonate]
≥ 80%: mortality at 50 ppm [1, 4] | mortality at 250 ppm [1, 5]

COC(=O)N(C(=O)c1cc(Cl)cc(OS(=O)(=O)C(F)(F)F)c1)C(C)c1ncnn1-c1ncccn1 (stereo not shown) [Compound 20]
≥ 80%: mortality at 50 ppm [1] | mortality at 250 ppm [1]

CCN(C(=O)c1cc(OS(=O)(=O)C(F)(F)F)cc(C(F)(F)F)c1)C(C)c1ncnn1-c1ncccn1 (stereo not shown) [Compound 27, 3-[[ethyl[1-[1-(2-pyrimidinyl)-1H-1,2,4-triazol-5-yl]ethyl]amino]carbonyl]-5-(trifluoromethyl)phenyl 1,1,1-trifluoromethanesulfonate]
≥ 80%: mortality at 250 ppm [2] | mortality at 50 ppm [1, 4] | mortality at 250 ppm [1, 5]

CC(NC(=O)c1cc(OS(=O)(=O)CC(F)(F)F)cc(C(F)(F)F)c1)c1ncnn1-c1ncccn1 (stereo not shown) [Compound 28]
≥ 80%: mortality at 250 ppm [1, 5]

CC(NC(=O)c1cc(OS(=O)(=O)C(F)F)cc(C(F)(F)F)c1)c1ncnn1-c1ncccn1 (stereo not shown) [Compound 38]
≥ 80%: mortality at 250 ppm [1, 5]

CC(NC(=O)c1cc(Cl)cc(OS(=O)(=O)C(F)F)c1)c1ncnn1-c1ncccn1 (stereo not shown) [Compound 39]
≥ 80%: mortality at 250 ppm [1, 5]

CC(NC(=O)c1cc(OS(=O)(=O)C(F)(F)F)cc([N+](=O)[O-])c1)c1ncnn1-c1ncccn1 (stereo not shown) [Compound 46]
≥ 80%: mortality at 50 ppm [1, 4] | mortality at 250 ppm [1, 5]

COC(=O)N(C(=O)c1cc(OS(=O)(=O)C(F)(F)F)cc(C(F)(F)F)c1)C(C)c1ncnn1-c1ncccn1 (stereo not shown) [Compound 48]
≥ 80%: mortality at 50 ppm [1] | mortality at 250 ppm [1]

CCN(C(=O)c1cc(Cl)cc(OS(=O)(=O)C(F)(F)F)c1)C(C)c1ncnn1-c1ncccn1 (stereo not shown) [Compound 50, 3-chloro-5-[[ethyl[1-[1-(2-pyrimidinyl)-1H-1,2,4-triazol-5-yl]ethyl]amino]carbonyl]phenyl 1,1,1-trifluoromethanesulfonate]
≥ 80%: mortality at 250 ppm [2] | mortality at 250 ppm [3] | mortality at 50 ppm [1, 4] | mortality at 250 ppm [1, 5]

CC(NC(=O)c1cc(Cl)cc(OS(=O)(=O)CC(F)(F)F)c1)c1ncnn1-c1ncccn1 (stereo not shown) [Compound 52]
≥ 80%: mortality at 250 ppm [1, 5]
